According to PubChem BioAssay (NCI):
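Tested at 5 concentrations; 48 h exposure; 96-well plates; endpoints linearly interpolated, else capped at highest concentration. GI50: concentration for 50% inhibition of growth. TGI: total growth inhibition.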

Experiments:
Test in all cases: inhibition of tumour cell growth, NCI panel, 48 h
[1] = system: SF-268 CNS
[2] = system: NCI/ADR-RES ovarian
[3] = system: SN12C renal
[4] = system: HCT-116 colon
[5] = system: KM12 colon
[6] = system: COLO 205 colon
[7] = system: PC-3 prostate
[8] = system: OVCAR-3 ovarian
[9] = system: HS 578T breast
[10] = system: HOP-62 NSCLC
[11] = system: A498 renal
[12] = system: 786-0 renal
[13] = system: SK-MEL-5 melanoma
[14] = system: MDA-MB-435
[15] = system: SK-OV-3 ovarian
[16] = system: CCRF-CEM leukemia
[17] = system: HL-60(TB) leukemia
[18] = system: OVCAR-8 ovarian
[19] = system: TK-10 renal
[20] = system: SNB-19 CNS
[21] = system: RPMI-8226 leukemia
[22] = system: MALME-3M melanoma
[23] = system: HCT-15 colon
[24] = system: SF-539 CNS
[25] = system: SK-MEL-28 melanoma
[26] = system: IGROV1 ovarian
[27] = system: SW-620 colon
[28] = system: SK-MEL-2 melanoma
[29] = system: SR leukemia
[30] = system: NCI-H23 lung
[31] = system: UACC-257 melanoma
[32] = system: SNB-75 CNS
[33] = system: NCI-H460 lung
[34] = system: OVCAR-5 ovarian
[35] = system: NCI-H522 lung
[36] = system: ACHN renal
[37] = system: UACC-62 melanoma
[38] = system: HT29 colon
[39] = system: M14 melanoma
[40] = system: NCI-H226 lung
[41] = system: MCF7 breast
[42] = system: K-562 leukemia
[43] = system: CAKI-1 renal
[44] = system: HOP-92 NSCLC
[45] = system: LOX IMVI melanoma
[46] = system: MOLT-4 leukemia
[47] = system: SF-295 CNS
[48] = system: RXF 393 renal
[49] = system: MDA-MB-231 breast
[50] = system: T-47D breast
[51] = system: OVCAR-4 ovarian
[52] = system: HCC-2998 colon
[53] = system: UO-31 renal
[54] = system: A549 NSCLC
[55] = system: U251 CNS
[56] = system: BT-549 breast
[57] = system: DU-145 prostate

COc1cc[nH]c1/C=C1\C(=O)Nc2ccc(F)c(I)c21
GI50 [1]: > 25 µM | TGI [1]: > 25 µM | GI50 [2]: > 25 µM | TGI [2]: > 25 µM | GI50 [3]: > 25 µM | TGI [3]: > 25 µM | GI50 [4]: > 25 µM | TGI [4]: > 25 µM | GI50 [5]: 1.25 µM | TGI [5]: > 25 µM | GI50 [6]: > 25 µM | TGI [6]: > 25 µM | GI50 [7]: > 25 µM | TGI [7]: > 25 µM | GI50 [8]: > 25 µM | TGI [8]: > 25 µM | GI50 [9]: > 25 µM | TGI [9]: > 25 µM | GI50 [10]: > 25 µM | TGI [10]: > 25 µM | GI50 [11]: > 25 µM | TGI [11]: > 25 µM | GI50 [12]: > 25 µM | TGI [12]: > 25 µM | GI50 [13]: > 25 µM | TGI [13]: > 25 µM | GI50 [14]: > 25 µM | TGI [14]: > 25 µM | GI50 [15]: > 25 µM | TGI [15]: > 25 µM | GI50 [16]: > 25 µM | TGI [16]: > 25 µM | GI50 [17]: > 25 µM | TGI [17]: > 25 µM | GI50 [18]: > 25 µM | TGI [18]: > 25 µM | GI50 [19]: > 25 µM | TGI [19]: > 25 µM | GI50 [20]: > 25 µM | TGI [20]: > 25 µM | GI50 [21]: > 25 µM | TGI [21]: > 25 µM | GI50 [22]: > 25 µM | TGI [22]: > 25 µM | GI50 [23]: > 25 µM | TGI [23]: > 25 µM | GI50 [24]: > 25 µM | TGI [24]: > 25 µM | GI50 [25]: > 25 µM | TGI [25]: > 25 µM | GI50 [26]: > 25 µM | TGI [26]: > 25 µM | GI50 [27]: > 25 µM | TGI [27]: > 25 µM | GI50 [28]: > 25 µM | TGI [28]: > 25 µM | GI50 [29]: > 25 µM | TGI [29]: > 25 µM | GI50 [30]: > 25 µM | TGI [30]: > 25 µM | GI50 [31]: > 25 µM | TGI [31]: > 25 µM | GI50 [32]: > 25 µM | TGI [32]: > 25 µM | GI50 [33]: > 25 µM | TGI [33]: > 25 µM | GI50 [34]: > 25 µM | TGI [34]: > 25 µM | GI50 [35]: > 25 µM | TGI [35]: > 25 µM | GI50 [36]: > 25 µM | TGI [36]: > 25 µM | GI50 [37]: > 25 µM | TGI [37]: > 25 µM | GI50 [38]: > 25 µM | TGI [38]: > 25 µM | GI50 [39]: > 25 µM | TGI [39]: > 25 µM | GI50 [40]: > 25 µM | TGI [40]: > 25 µM | GI50 [41]: > 25 µM | TGI [41]: > 25 µM | GI50 [42]: > 25 µM | TGI [42]: > 25 µM | GI50 [43]: 0.557 µM | TGI [43]: > 25 µM | GI50 [44]: > 25 µM | TGI [44]: > 25 µM | GI50 [45]: > 25 µM | TGI [45]: > 25 µM | GI50 [46]: > 25 µM | TGI [46]: > 25 µM | GI50 [47]: > 25 µM | TGI [47]: > 25 µM | GI50 [48]: > 25 µM | TGI [48]: > 25 µM | GI50 [49]: > 25 µM | TGI [49]: > 25 µM | GI50 [50]: > 25 µM | TGI [50]: > 25 µM | GI50 [51]: > 25 µM | TGI [51]: > 25 µM | GI50 [52]: > 25 µM | TGI [52]: > 25 µM | GI50 [53]: > 25 µM | TGI [53]: > 25 µM | GI50 [54]: > 25 µM | TGI [54]: > 25 µM | GI50 [55]: > 25 µM | TGI [55]: > 25 µM | GI50 [56]: > 25 µM | TGI [56]: > 25 µM | GI50 [57]: > 25 µM | TGI [57]: > 25 µM
